Data from PMC11879040, “Advancing systemic toxicity risk assessment: Evaluation of a NAM-based toolbox approach” (Toxicological Sciences, 2024).
Where two headings read alike, the source gives them in different places.

Tests used:
HepG2 cells [1] = assay: Cell stress panel (CSP), 24 h, 8 concentrations, BIFROST global PoD; assay type: cell-based; conditions: HepG2; cell stress panel PoD
Description: Compounds were tested using the previously developed cell stress panel ([Hatherell et al. 2020]) and the expanded biomarker panel outlined in Middleton et al. HepG2 cells were treated with all compounds for 24 h across 8 concentrations prior to biomarker analysis. The same plate layout and number of replicates (3 biological and 2 technical) were used as previously for each assay within the panel.

[2] = PBK model plasma Cmax estimate (Gastroplus 9.8; levels L1, L2, L3); design: species or system human; conditions: therapeutic uses
[3] = cited from earlier work
[4] = Assignment of risk classifications to benchmark chemical-exposure scenarios; conditions: from table S1
[5] = test system: Gamma-aminobutyric acid receptor subunit alpha-1 BZD site, GABRA1A (r); assay type: binding, rat; conditions: control diazepam
[6] = molecular target: T1, Adenosine receptor A2a, ADORA2A (h) (Homo sapiens, UniProt P29274); assay: IPP ADORA2A binding (agonist radioligand); conditions: control NECA
T1 construct: purchased Eurofins Cerep (SafetyScreen44-based IPP panel)
T1 sequence (P29274 whole entry): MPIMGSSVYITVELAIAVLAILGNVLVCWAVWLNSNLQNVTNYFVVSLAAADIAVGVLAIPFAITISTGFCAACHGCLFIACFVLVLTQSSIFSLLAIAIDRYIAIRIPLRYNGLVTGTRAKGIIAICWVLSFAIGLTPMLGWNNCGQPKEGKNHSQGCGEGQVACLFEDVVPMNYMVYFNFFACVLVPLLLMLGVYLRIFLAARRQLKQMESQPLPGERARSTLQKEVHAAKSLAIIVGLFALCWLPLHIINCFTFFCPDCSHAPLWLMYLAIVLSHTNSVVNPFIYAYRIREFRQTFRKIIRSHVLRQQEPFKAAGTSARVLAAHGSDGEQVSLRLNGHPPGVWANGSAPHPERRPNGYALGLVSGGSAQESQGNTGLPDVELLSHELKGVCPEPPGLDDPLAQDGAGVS

[7] = test system: Glutamate receptor ionotropic NMDA 1 non-selective, GRIN1 (r); conditions: IPP screening at 10 uM; control CGS 19755
[8] = human
[9] = molecular target: T2, Estrogen receptor, ER1 (h) (Homo sapiens, UniProt P03372); assay: IPP ER1 coactivator recruitment (agonist); assay type: biochemical; conditions: 10 uM, estriol
T2 construct: purchased Eurofins Cerep (SafetyScreen44-based IPP panel)
T2 sequence (P03372 1-595): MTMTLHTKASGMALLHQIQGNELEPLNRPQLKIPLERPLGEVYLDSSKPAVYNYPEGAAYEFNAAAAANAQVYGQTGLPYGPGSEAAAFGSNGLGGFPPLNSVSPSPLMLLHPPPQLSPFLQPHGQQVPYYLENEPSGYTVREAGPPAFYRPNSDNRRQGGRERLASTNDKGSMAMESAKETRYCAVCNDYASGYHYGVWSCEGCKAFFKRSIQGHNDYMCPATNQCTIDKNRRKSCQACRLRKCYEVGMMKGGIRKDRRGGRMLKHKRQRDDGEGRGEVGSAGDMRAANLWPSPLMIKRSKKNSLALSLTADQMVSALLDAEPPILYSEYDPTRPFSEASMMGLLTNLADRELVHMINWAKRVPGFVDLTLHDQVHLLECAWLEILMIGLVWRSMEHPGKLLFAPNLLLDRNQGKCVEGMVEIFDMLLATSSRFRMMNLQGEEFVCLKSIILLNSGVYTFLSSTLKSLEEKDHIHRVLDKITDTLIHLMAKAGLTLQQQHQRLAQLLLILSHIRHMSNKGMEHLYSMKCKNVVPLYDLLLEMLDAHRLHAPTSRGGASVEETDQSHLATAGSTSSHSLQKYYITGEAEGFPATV

Tubulin (r) = assay: IPP Tubulin binding; design: species or system rat; conditions: ligand/control Colchicine
[10] = molecular target: T3, Pregnane X receptor PXR, NR1I2 (h) (Homo sapiens, UniProt O75469)
T3 sequence (O75469 1-434): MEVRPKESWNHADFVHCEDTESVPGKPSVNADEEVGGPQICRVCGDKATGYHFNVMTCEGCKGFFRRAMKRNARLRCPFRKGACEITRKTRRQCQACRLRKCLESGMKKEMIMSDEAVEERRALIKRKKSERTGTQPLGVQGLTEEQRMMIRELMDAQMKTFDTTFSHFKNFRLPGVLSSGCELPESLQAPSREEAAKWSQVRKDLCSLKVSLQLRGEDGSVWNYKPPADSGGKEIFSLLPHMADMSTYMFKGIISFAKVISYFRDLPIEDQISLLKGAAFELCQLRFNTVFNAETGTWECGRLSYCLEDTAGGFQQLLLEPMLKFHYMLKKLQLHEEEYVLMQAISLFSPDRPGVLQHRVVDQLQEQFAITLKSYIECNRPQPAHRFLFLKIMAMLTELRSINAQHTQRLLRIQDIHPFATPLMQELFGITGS

rat = conditions: rat; 28 days; changes in thyroid hormone levels; ref ToxRefDB/Paul-Friedman et al. (2020)/regulatory opinions; cited from earlier work
[11] = cited from earlier work; remark: listed apart in the source
HepaRG cells = assay: High-throughput transcriptomics (HTTr, TempO-Seq), HepaRG, 24 h; assay type: cell-based, human; conditions: HepaRG
Description: (§1) HepG2, HepaRG, and MCF7 cells were treated with each compound for 24 h across a dose range of 7 concentrations and lysed using TempO-Seq lysis buffer (BioSpyder Technologies, proprietary kit, see [Middleton et al. 2022] for method details). Sequencing was performed using TempO-Seq (BioClavis) version 2 of the human whole transcriptome panel and analyzed as described previously in Middleton et al.

[12] = test system: 63 targets with known safety liabilities; assay: In vitro pharmacological profiling (IPP) panel, screening at 10 or 100 µM and dose response, minimum IC50/AC50; assay type: biochemical; conditions: lowest AC50 across IPP panel (systemic targets); cell_type -; read-out: ipp_lowest_ac50_systemic PoD
[13] = at the given pH, single value or median, cited from earlier work
[14] = test system: Thyroid hormone receptor alpha, THRA (h); assay: IPP THRA coactivator recruitment (agonist); assay type: biochemical, human; conditions: agonist, T3
MCF7 cells = assay: High-throughput transcriptomics (HTTr, TempO-Seq), MCF7, 24 h; assay type: cell-based, human; conditions: MCF-7
Description: as §1

HepG2 cells [15] = assay: High-throughput transcriptomics (HTTr, TempO-Seq), HepG2, 24 h; assay type: cell-based, human
Description: as §1

[16] = molecular target: T2, Estrogen receptor, ER1 (h); assay: IPP ER1 coactivator recruitment (antagonist); assay type: biochemical; conditions: 10 uM, estriol
[17] = hepatic intrinsic clearance (Clint); conditions: PBK level L3; optimised against clinical data; per chemical [8],[9],[14],[16],[22],[24],[25],[29],[30],[32]
[18] = test system: Potassium Voltage-Gated Channel Kv non-selective, KCNQ1 (r); assay: IPP KCNQ1 binding (antagonist radioligand); design: species or system rat; conditions: IPP screening at 100 uM; control α-dendrotoxin
[19] = test system: Sodium channel protein type 5 subunit alpha (site 2), SCN5A (r); assay type: binding, rat
[20] = molecular target: Voltage-dependent L-type Ca2+ channel (dihydropyridine site), CACNA1C (r) (Rattus norvegicus, UniProt P22002); assay type: binding
Sequence of Voltage-dependent L-type Ca2+ channel (dihydropyridine site), CACNA1C (r) (P22002 whole entry): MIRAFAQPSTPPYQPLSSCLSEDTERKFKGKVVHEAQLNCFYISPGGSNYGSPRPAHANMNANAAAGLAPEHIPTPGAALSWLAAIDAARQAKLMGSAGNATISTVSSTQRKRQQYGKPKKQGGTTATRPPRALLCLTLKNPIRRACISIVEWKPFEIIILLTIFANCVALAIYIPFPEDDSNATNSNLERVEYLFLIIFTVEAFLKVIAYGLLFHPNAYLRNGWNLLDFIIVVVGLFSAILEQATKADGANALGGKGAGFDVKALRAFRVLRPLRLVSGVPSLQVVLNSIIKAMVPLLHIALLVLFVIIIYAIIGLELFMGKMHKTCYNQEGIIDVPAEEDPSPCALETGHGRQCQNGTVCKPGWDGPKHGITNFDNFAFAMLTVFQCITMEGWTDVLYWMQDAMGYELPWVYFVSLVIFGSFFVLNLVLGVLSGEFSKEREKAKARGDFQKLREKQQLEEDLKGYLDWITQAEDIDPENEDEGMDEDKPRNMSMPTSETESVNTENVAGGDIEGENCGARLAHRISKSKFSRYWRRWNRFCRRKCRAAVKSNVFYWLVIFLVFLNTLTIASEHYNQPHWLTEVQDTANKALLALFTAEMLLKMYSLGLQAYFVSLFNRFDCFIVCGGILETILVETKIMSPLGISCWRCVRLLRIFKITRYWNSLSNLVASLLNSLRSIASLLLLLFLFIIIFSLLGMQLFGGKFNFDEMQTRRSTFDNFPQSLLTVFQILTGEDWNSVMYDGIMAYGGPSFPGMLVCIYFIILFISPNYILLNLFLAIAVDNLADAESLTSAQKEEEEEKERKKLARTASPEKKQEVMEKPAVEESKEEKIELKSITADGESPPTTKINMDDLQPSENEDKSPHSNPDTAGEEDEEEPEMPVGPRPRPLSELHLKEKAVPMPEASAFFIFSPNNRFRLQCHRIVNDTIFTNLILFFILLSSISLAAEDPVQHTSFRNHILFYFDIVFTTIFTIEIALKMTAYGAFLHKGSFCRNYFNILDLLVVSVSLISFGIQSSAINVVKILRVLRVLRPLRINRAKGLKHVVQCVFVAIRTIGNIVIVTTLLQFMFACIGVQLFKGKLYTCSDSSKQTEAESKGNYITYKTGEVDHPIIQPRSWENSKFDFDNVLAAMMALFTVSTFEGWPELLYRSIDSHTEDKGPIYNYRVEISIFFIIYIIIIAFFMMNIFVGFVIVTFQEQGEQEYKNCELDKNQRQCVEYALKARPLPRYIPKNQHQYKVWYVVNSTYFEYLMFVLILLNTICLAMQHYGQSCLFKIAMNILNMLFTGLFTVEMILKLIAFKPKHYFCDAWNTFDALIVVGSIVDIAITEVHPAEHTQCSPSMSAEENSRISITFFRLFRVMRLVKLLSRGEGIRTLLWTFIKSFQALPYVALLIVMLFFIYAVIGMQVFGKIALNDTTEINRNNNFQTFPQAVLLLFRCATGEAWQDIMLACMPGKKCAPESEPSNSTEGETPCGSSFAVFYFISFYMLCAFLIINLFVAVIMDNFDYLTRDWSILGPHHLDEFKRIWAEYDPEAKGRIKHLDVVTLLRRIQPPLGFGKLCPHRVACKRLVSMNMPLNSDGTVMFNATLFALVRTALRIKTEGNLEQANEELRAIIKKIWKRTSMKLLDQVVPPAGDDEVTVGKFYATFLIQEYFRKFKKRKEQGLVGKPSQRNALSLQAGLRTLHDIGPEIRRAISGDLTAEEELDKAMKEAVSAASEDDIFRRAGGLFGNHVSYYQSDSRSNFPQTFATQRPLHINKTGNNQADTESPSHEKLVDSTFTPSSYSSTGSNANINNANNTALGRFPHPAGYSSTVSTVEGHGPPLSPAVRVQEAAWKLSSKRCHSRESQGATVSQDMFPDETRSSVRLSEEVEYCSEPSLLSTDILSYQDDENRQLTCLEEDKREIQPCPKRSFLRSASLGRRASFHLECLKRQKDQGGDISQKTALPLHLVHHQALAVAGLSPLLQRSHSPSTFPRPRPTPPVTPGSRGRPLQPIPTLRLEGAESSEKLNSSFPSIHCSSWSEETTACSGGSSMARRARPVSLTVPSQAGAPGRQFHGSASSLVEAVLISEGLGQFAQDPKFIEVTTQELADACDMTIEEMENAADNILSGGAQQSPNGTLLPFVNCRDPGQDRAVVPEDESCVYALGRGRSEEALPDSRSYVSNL

[21] = molecular target: Dopamine receptor D2, DRD2 (h) (Homo sapiens, UniProt P14416); assay: biochemical
Sequence of Dopamine receptor D2, DRD2 (h) (P14416 whole entry): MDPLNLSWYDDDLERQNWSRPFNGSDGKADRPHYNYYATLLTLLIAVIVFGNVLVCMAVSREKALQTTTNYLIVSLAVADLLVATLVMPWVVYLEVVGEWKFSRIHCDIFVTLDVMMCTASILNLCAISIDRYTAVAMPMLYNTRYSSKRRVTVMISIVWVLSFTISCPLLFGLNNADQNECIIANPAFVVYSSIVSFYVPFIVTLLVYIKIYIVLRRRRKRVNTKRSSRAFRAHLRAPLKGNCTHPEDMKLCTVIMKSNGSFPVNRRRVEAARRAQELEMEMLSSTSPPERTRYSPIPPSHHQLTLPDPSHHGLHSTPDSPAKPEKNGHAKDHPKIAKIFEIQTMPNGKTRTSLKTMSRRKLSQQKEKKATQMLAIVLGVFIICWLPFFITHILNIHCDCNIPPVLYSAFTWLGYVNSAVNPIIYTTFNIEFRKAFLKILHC

[22] = unbound fraction in plasma (fup); conditions: PBK input, levels L2/L3; median of [2] internal data (unpublished) and [10]
[23] = PBK input, levels L2/L3; ref [5]; cited from earlier work
[24] = Oral 200 mg solution, fasted, 23 healthy male, validation, ref Huang et al. 1986
[25] = Oral 200 mg suspension, fasted, 23 healthy male, validation, ref Huang et al. 1986
[26] = Oral 200 mg tablet, fasted, 23 healthy male, validation, ref Huang et al. 1986
[27] = Oral 200 mg tablet, fed, 6 healthy male, calibration, ref Daneshmend et al. 1981
[28] = Oral 200 mg tablet, fed, 8 healthy male, validation, ref Daneshmend et al. 1983
[29] = PBK level L2, taken or scaled from references (median where several), ref [6],[7],[10],[19]
[30] = IV 10 mg infusion (8.9 mg), 6 healthy, calibration, ref Ross-Lee et al. 1981
[31] = IV 20 mg infusion (15.4 mg base), 8 healthy, validation, ref Magueur et al. 1991
[32] = Oral 10 mg tablet (8.9 mg), fasted, 6 healthy, calibration, ref Ross-Lee et al. 1981
[33] = Oral 10 mg tablet (8.9 mg), fasted, 8 healthy male, validation, ref Bateman et al. 1980
[34] = Oral 20 mg tablet (17 mg base), fasted, 8 healthy, validation, ref Magueur et al. 1991
[35] = Oral 20 mg tablet (17.8 mg), fasted, 8 healthy male, validation, ref Bateman et al. 1980

In the case of `CC(=O)N1CCN(c2ccc(OC[C@H]3CO[C@](Cn4ccnc4)(c4ccc(Cl)cc4Cl)O3)cc2)CC1` [Ketoconazole, 1-{4-[4-({(2R,4S)-2-(2,4-Dichlorophenyl)-2-[(1H-imidazol-1-yl)methyl]-1,3-dioxolan-4-yl}methoxy)phenyl]piperazin-1-yl}ethan-1-one], the “pod_cell_stress PoD” value (HepG2 cells [1]) is listed as 0.1454 µM, the “underprediction of the L3 result at L2 (Cmax)” value [2] is listed as at least 5 fold and the “Reported AUC0-t” value [3, 24] is listed as 18.17 µg·h/mL. For the same compound, the Reported cmax [3, 24] was 5160 ng/mL, the Reported tmax [3, 24] was 1 h and the “Reported AUC0-t” value [3, 25] was 15.73 µg·h/mL. For the same compound, the Reported cmax [3, 25] was 4660 ng/mL, the Reported tmax [3, 25] was 1 h and the “Reported AUC0-t” value [3, 26] was 14.74 µg·h/mL. The Reported cmax [3, 26] was 3260 ng/mL, the Reported tmax [3, 26] was 2 h and the “Reported AUC0-t” value [3, 27] was 16.94 µg·h/mL. For the same compound, the Reported cmax [3, 27] was 3573 ng/mL, the Reported tmax [3, 27] was 2.475 h and the “Reported AUC0-t” value [3, 28] was 10.33 µg·h/mL. The Reported cmax [3, 28] was 3636 ng/mL, the Reported tmax [3, 28] was 1.28 h and the risk ([4]; Dermal, Therapeutic, 2% daily, Shampoo, Exp2) was 0. The risk ([4]; Dermal, Therapeutic, 2% twice weekly, Shampoo, Exp1) was 0, the risk ([4]; Oral, 200 mg/day for fungal infection, Tablet, Exp4) was 1 and the risk ([4]; Oral, Therapeutic, 1200mg/day, Tablet, Exp3) was 1. For the same compound, the Specific binding ([5]; IPP screening at 10 uM) was 15.5%, the Specific binding ([6]; IPP screening at 10 uM) was 2.1% and the Specific binding [7] was 2.7%. The Fup [8] was 0.1%, the “IPP screening %, Coactivator recruitment” value [9] was -1.0% and the “IPP screening %, Specific binding” value (Tubulin (r); 10 uM) was -15.0%. The “IPP Dose Response PoD: PXR antagonist” value [10] was “[7.8,21.8]”, the “PoD (NOEL)” value (rat) was 6.25 mg/kg bw/day and the “Intrinsic Liver Clearance” value [11, 29] was 1620.2 L/h. The “pod_httr_bifrost PoD” value (HepaRG cells; HTTr BIFROST PoD) was 0.01699 µM, the “podl_path_minbmd PoD” value (HepaRG cells; HTTr minimum pathway BMD(L)) was 0.1535 µM and the AC50 [12] was 0.38 µM. For the same compound, the “Aqueous Solubility” value ([13]; PBK level L2, ref [1],[4],[5],[10],[11],[17],[26]) was 0.042 mg/mL, the “Aqueous Solubility” value ([13]; PBK level L3, ref [4],[5],[10],[11]) was 0.042 mg/mL and the “IPP screening %, Coactivator recruitment” value ([14]; 10 uM) was 1.0%. The “pod_httr_bifrost PoD” value (MCF7 cells; HTTr BIFROST PoD) was 0.1915 µM, the “podl_path_minbmd PoD” value (MCF7 cells; HTTr minimum pathway BMD(L)) was 0.1648 µM and the “pod_httr_bifrost PoD” value (HepG2 cells [15]; HepG2, HTTr BIFROST PoD) was 0.0007156 µM. The “podl_path_minbmd PoD” value (HepG2 cells [15]; HepG2, HTTr minimum pathway BMD(L)) was 0.9153 µM, the “IPP screening %, Coactivator recruitment” value [16] was 24.0% and the “Intrinsic Liver Clearance” value [17] was 10077 L/h.

In the case of `CCN(CC)CCNC(=O)c1cc(Cl)c(N)cc1OC` [Metoclopramide, 4-Amino-5-chloro-N-[2-(diethylamino)ethyl]-2-methoxybenzamide], the “Reported AUC0-t” value [3, 30] is given as 0.3259 µg·h/mL, the Reported cmax [3, 30] is given as 129.1 ng/mL and the Reported tmax [3, 30] is given as 0.076 h. The “Reported AUC0-t” value [3, 31] was 0.9683 µg·h/mL, the Reported cmax [3, 31] was 201.3 ng/mL and the Reported tmax [3, 31] was 0.042 h. For the same compound, the “Reported AUC0-t” value [3, 32] was 0.2477 µg·h/mL, the Reported cmax [3, 32] was 51.06 ng/mL and the Reported tmax [3, 32] was 0.746 h. For the same compound, the “Reported AUC0-t” value [3, 33] was 0.14287 µg·h/mL, the Reported cmax [3, 33] was 39.948 ng/mL and the Reported tmax [3, 33] was 0.7767 h. The “Reported AUC0-t” value [3, 34] was 0.604 µg·h/mL, the Reported cmax [3, 34] was 55.85 ng/mL and the Reported tmax [3, 34] was 2.01 h. For the same compound, the “Reported AUC0-t” value [3, 35] was 0.3598 µg·h/mL, the Reported cmax [3, 35] was 75.62 ng/mL and the Reported tmax [3, 35] was 1.037 h. It also gave a Specific binding [18] of -1.0%, a risk ([4]; IV, High therapeutic, 30 mg/day, Exp3) of 1 and a risk ([4]; Oral, High therapeutic, 30 mg/day, Tablet, Exp2) of 1. The risk ([4]; Oral, Low therapeutic, 10 mg/day, Tablet, Exp1) was 1, the Specific binding ([5]; IPP screening at 100 uM) was 29.4% and the Specific binding [19] was 40.1%. For the same compound, the Specific binding ([6]; IPP screening at 100 uM) was 6.5%, the “IPP screening %, Specific binding” value (Tubulin (r); 100 uM) was 0.0% and the “Intrinsic Liver Clearance” value [11, 29] was 33.81 L/h. For the same compound, the “Intrinsic Liver Clearance” value ([11]; PBK level L3, scaled from references (median where several), ref [7],[10],[19]) was 33.81 L/h, the Specific binding [20] was -18.6% and the “IPP screening %, Coactivator recruitment” value ([14]; 100 uM, * denotes assay interference (2-Amino-6-chloro-4-nitrophenol, HC Red 3)) was 1.0%. For the same compound, the “next lowest PoD, HepG2 HTTr” value (HepG2 cells [15]; BIFROST gene level PoD) was 16 µM and the IC50 [21] was 0.046 µM.

In the case of `CN(C)[C@@H]1C(O)=C(C(N)=O)C(=O)[C@@]2(O)C(O)=C3C(=O)c4c(O)cccc4[C@@](C)(O)[C@H]3[C@H](O)[C@@H]12` [Oxytetracycline], the Fup [22] is given as 68.88% and the logP/D [23] is given as -1.307.
